Results as given in PubChem BioAssay AID248 (DTP/NCI, 2004).
Where “and” joins values, the source holds several entries; their conditions need not be identical. Equal entries are not always repeated. Toxic doses and inconclusive results are not listed. Cut-off read from the data, not from the text of the source: active = T/C of 150% or more; inactive = T/C below 125%.

Tested on: L1210 leukemia ip in BDF1 mice, survival T/C
Assay: NCI In Vivo Anticancer Drug Screen. Data for tumor model L1210 Leukemia (intraperitoneal) in B6D2F1 (BDF1) mice
Settings: endpoint: mean survival time, higher = longer survival
How it was run: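 Transplanted-tumor mice were given test agent; controls received vehicle only. Survival readings from the two groups were divided (treated over control).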

[1] = dose: 100.0 mg/kg/injection, schedule: Q04DX003 (ip), vehicle: saline
[2] = dose: 100.0 mg/kg/injection, schedule: Q01DX001 (ip), vehicle: saline
[3] = dose: 200.0 mg/kg/injection, schedule: Q01DX001 (ip), vehicle: saline
[4] = dose: 400.0 mg/kg/injection, schedule: Q01DX001 (ip), vehicle: saline

Measured: T/C

CC(=O)Nc1cc(C)c(Cl)cc1Cl
inactive: dose: 31.25 mg/kg/injection, schedule: Q01DX009 (ip), vehicle: saline 103 % of control | dose: 62.5 mg/kg/injection, schedule: Q01DX009 (ip), vehicle: saline 103 % of control | [1] 100 % of control | dose: 125.0 mg/kg/injection, schedule: Q01DX009 (ip), vehicle: saline 102 % of control | dose: 200.0 mg/kg/injection, schedule: Q04DX003 (ip), vehicle: saline 105 % of control | dose: 400.0 mg/kg/injection, schedule: Q04DX003 (ip), vehicle: saline 101 % of control

Cc1cc(NS(=O)(=O)c2ccc(N=Nc3ccc(N)nc3N)cc2)nc(C)n1
inactive: [2] 102 % of control | [3] 105 % of control | [4] 100 % of control

O=C(NC(=S)Nc1ccc(Cl)c(Cl)c1)c1ccc(Cl)cc1Cl
inactive: dose: 100.0 mg/kg/injection, schedule: Q01DX001 (ip), vehicle: saline with Tween-80 93 % of control | dose: 100.0 mg/kg/injection, schedule: Q01DX009 (ip), vehicle: saline with Tween-80 97 % of control and 98 % of control | dose: 100.0 mg/kg/injection, schedule: Q04DX002 (ip), vehicle: saline with Tween-80 98 % of control and 90 % of control | dose: 100.0 mg/kg/injection, schedule: Q04DX003 (ip), vehicle: saline with Tween-80 93 % of control | dose: 200.0 mg/kg/injection, schedule: Q01DX001 (ip), vehicle: saline with Tween-80 89 % of control | dose: 200.0 mg/kg/injection, schedule: Q01DX009 (ip), vehicle: saline with Tween-80 91 % of control and 92 % of control | dose: 200.0 mg/kg/injection, schedule: Q04DX002 (ip), vehicle: saline with Tween-80 101 % of control | dose: 200.0 mg/kg/injection, schedule: Q04DX003 (ip), vehicle: saline with Tween-80 93 % of control | dose: 400.0 mg/kg/injection, schedule: Q01DX009 (ip), vehicle: saline with Tween-80 87 % of control and 91 % of control | dose: 400.0 mg/kg/injection, schedule: Q04DX002 (ip), vehicle: saline with Tween-80 95 % of control and 90 % of control | dose: 400.0 mg/kg/injection, schedule: Q04DX003 (ip), vehicle: saline with Tween-80 93 % of control

ClCCCSc1ccccc1
inactive: [2] 96 % of control and 111 % of control | [3] 96 % of control and 98 % of control | [4] 97 % of control and 98 % of control

CCCCCCCCCCCCCCCCOc1ccc(NC(N)=S)cc1
inactive: dose: 75.0 mg/kg/injection, schedule: Q04DX003 (ip), vehicle: Klucel (hydroxypropylcellulose) (HPC) 101 % of control | dose: 100.0 mg/kg/injection, schedule: Q01DX001 (ip), vehicle: Klucel (hydroxypropylcellulose) (HPC) 96 % of control | dose: 150.0 mg/kg/injection, schedule: Q04DX003 (ip), vehicle: Klucel (hydroxypropylcellulose) (HPC) 88 % of control | dose: 200.0 mg/kg/injection, schedule: Q01DX001 (ip), vehicle: Klucel (hydroxypropylcellulose) (HPC) 97 % of control | dose: 300.0 mg/kg/injection, schedule: Q04DX003 (ip), vehicle: Klucel (hydroxypropylcellulose) (HPC) 89 % of control | dose: 400.0 mg/kg/injection, schedule: Q01DX001 (ip), vehicle: Klucel (hydroxypropylcellulose) (HPC) 93 % of control

Nc1ccc(C(=O)Nc2ccc(Nc3ccncc3)cc2)cc1
inactive: dose: 100.0 mg/kg/injection, schedule: Q01DX009 (ip), vehicle: Klucel (hydroxypropylcellulose) (HPC) 112 % of control | dose: 100.0 mg/kg/injection, schedule: Q04DX003 (ip), vehicle: Klucel (hydroxypropylcellulose) (HPC) 108 % of control | dose: 200.0 mg/kg/injection, schedule: Q01DX009 (ip), vehicle: Klucel (hydroxypropylcellulose) (HPC) 106 % of control | dose: 200.0 mg/kg/injection, schedule: Q04DX003 (ip), vehicle: Klucel (hydroxypropylcellulose) (HPC) 103 % of control | dose: 400.0 mg/kg/injection, schedule: Q01DX009 (ip), vehicle: Klucel (hydroxypropylcellulose) (HPC) 103 % of control | dose: 400.0 mg/kg/injection, schedule: Q04DX003 (ip), vehicle: Klucel (hydroxypropylcellulose) (HPC) 106 % of control

CN1CCN(CCCN2c3ccccc3Sc3ccc(C(F)(F)F)cc32)CC1
inactive: dose: 3.12 mg/kg/injection, schedule: Q01DX009 (ip), vehicle: saline 93 % of control | dose: 6.25 mg/kg/injection, schedule: Q01DX009 (ip), vehicle: saline 98 % of control and 104 % of control and 118 % of control | dose: 9.0 mg/kg/injection, schedule: Q04DX003 (ip), vehicle: saline with Tween-80 112 % of control | dose: 9.3 mg/kg/injection, schedule: Q01DX009 (ip), vehicle: saline 101 % of control | dose: 10.0 mg/kg/injection, schedule: Q01DX009 (ip), vehicle: saline with Tween-80 106 % of control | dose: 12.5 mg/kg/injection, schedule: Q01DX009 (ip), vehicle: saline 113 % of control and 106 % of control | dose: 12.5 mg/kg/injection, schedule: Q04DX003 (ip), vehicle: saline 102 % of control | dose: 15.0 mg/kg/injection, schedule: Q01DX009 (ip), vehicle: saline with Tween-80 101 % of control | dose: 18.0 mg/kg/injection, schedule: Q01DX001 (ip), vehicle: saline with Tween-80 104 % of control | dose: 18.0 mg/kg/injection, schedule: Q04DX003 (ip), vehicle: saline with Tween-80 117 % of control | dose: 18.7 mg/kg/injection, schedule: Q01DX009 (ip), vehicle: saline 114 % of control | dose: 18.75 mg/kg/injection, schedule: Q04DX003 (ip), vehicle: saline 106 % of control | dose: 20.0 mg/kg/injection, schedule: Q04DX003 (ip), vehicle: saline with Tween-80 111 % of control | dose: 22.0 mg/kg/injection, schedule: Q01DX009 (ip), vehicle: saline with Tween-80 118 % of control | dose: 25.0 mg/kg/injection, schedule: Q01DX009 (ip), vehicle: acetone 107 % of control | dose: 25.0 mg/kg/injection, schedule: Q01DX009 (ip), vehicle: saline with Tween-80 108 % of control | dose: 25.0 mg/kg/injection, schedule: Q01DX009 (ip), vehicle: saline 102 % of control and 109 % of control | dose: 25.0 mg/kg/injection, schedule: Q04DX003 (ip), vehicle: acetone 100 % of control | dose: 25.0 mg/kg/injection, schedule: Q04DX003 (ip), vehicle: saline 103 % of control [middle of 4 runs] | dose: 30.0 mg/kg/injection, schedule: Q04DX003 (ip), vehicle: saline with Tween-80 119 % of control | dose: 33.0 mg/kg/injection, schedule: Q01DX009 (ip), vehicle: saline with Tween-80 123 % of control | dose: 37.0 mg/kg/injection, schedule: Q01DX001 (ip), vehicle: saline with Tween-80 104 % of control | dose: 37.5 mg/kg/injection, schedule: Q04DX003 (ip), vehicle: saline 96 % of control | dose: 44.0 mg/kg/injection, schedule: Q04DX003 (ip), vehicle: saline with Tween-80 116 % of control | dose: 50.0 mg/kg/injection, schedule: Q01DX009 (ip), vehicle: acetone 120 % of control | dose: 50.0 mg/kg/injection, schedule: Q04DX003 (ip), vehicle: acetone 100 % of control | dose: 50.0 mg/kg/injection, schedule: Q04DX003 (ip), vehicle: saline 111 % of control [middle of 4 runs] | dose: 66.0 mg/kg/injection, schedule: Q04DX003 (ip), vehicle: saline with Tween-80 108 % of control | dose: 75.0 mg/kg/injection, schedule: Q01DX001 (ip), vehicle: saline with Tween-80 113 % of control | dose: 75.0 mg/kg/injection, schedule: Q04DX003 (ip), vehicle: saline with Tween-80 119 % of control | dose: 75.0 mg/kg/injection, schedule: Q04DX003 (ip), vehicle: saline 102 % of control | [2] 101 % of control | dose: 100.0 mg/kg/injection, schedule: Q01DX009 (ip), vehicle: acetone 113 % of control | dose: 100.0 mg/kg/injection, schedule: Q04DX003 (ip), vehicle: acetone 121 % of control | [1] 99 % of control and 112 % of control | dose: 150.0 mg/kg/injection, schedule: Q01DX001 (ip), vehicle: saline with Tween-80 90 % of control
